Data set [1] relates to HUVEC. In words: Cytotoxicity against HUVEC assessed as reduction in cell viability after 24 hrs by MTT assay. To be noted: human. The class given is cell-based.
The test system of data set [2] is HUVEC. In words: Antiangiogenic activity in HUVEC assessed as inhibition of tube formation on matrigel after 24 hrs by Mayer's hematoxylin staining based light microscopy. The class given is functional, cell-based. Particulars: Homo sapiens.
Data set [3] relates to HUVEC. In words: Cytotoxicity against HUVEC assessed as reduction in cell viability at 100 ug/ml after 24 hrs by MTT assay relative to control. The class given is cell-based. Particulars: human. In general terms: Tetrazolium dyes change colour on reduction, which living cells bring about.
Data set [4] relates to HUVEC. In words: Cytotoxicity against HUVEC assessed as reduction in cell viability up to 12.5 ug/ml after 24 hrs by MTT assay. To be noted: human. The class given is cell-based.
Data set [5] concerns HUVEC. In words: Antiangiogenic activity in HUVEC assessed as inhibition of tube formation on matrigel at 12.5 ug/ml after 24 hrs by Mayer's hematoxylin staining based light microscopy relative to control. The class given is functional. To be noted: Homo sapiens.
Data set [6] has as its system HUVEC. In words: Down regulation of VEGF expression in HUVEC at 12.5 ug/ml after 24 hrs by Western blot analysis relative to control. The class given is functional, Homo sapiens.
The test system of data set [7] is HUVEC. In words: Down regulation of VEGF expression in HUVEC at 6.25 ug/ml after 24 hrs by Western blot analysis relative to control. The class given is functional, Homo sapiens. (In general: A western blot detects proteins with antibodies after separation by electrophoresis.)
Data set [8] has as its target T1, MAP kinase p38 (Homo sapiens) (UniProt O15264+Q15759+Q16539+P53778). In words: Inhibition of p38 phosphorylation in HUVEC at 12.5 ug/ml after 24 hrs by Western blot analysis relative to control.
Data set [9] is filed under the species Homo sapiens. In words: Inhibition of ERK phosphorylation in HUVEC at 12.5 ug/ml after 24 hrs by Western blot analysis relative to control.
Data set [10] is filed under the species Homo sapiens. In words: Inhibition of ERK phosphorylation in HUVEC at 6.25 ug/ml after 24 hrs by Western blot analysis relative to control.
For data set [11], the target named is T1, MAP kinase p38 (Homo sapiens). In words: Inhibition of p38 phosphorylation in HUVEC at 6.25 ug/ml after 24 hrs by Western blot analysis relative to control.

The values below come from ChEMBL document CHEMBL4052806, “Chemical constituents from the rare mushroom Calvatia nipponica inhibit the promotion of angiogenesis in HUVECs” (Bioorg Med Chem Lett, 2017).

The source made the active and inactive calls. The calls are words filed in the database; no cut-off is given here.

Turning to `OCc1cc(O)cc(O)c1`, the results for the Activity result with HUVEC [1], in the data set on HUVEC [3] and in the data set with HUVEC [4] were “Dose-dependent effect”, 25.15% and “Non-Toxic”, respectively. In addition, the inhibition result in the data set with HUVEC [2] was “inactive”.
In the case of `CC(=O)Nc1ccc(O)cc1` [ACETAMINOPHEN], the values for the Activity entry in the data set with HUVEC [1], with HUVEC [3] and in the data set on HUVEC [4] were “Dose-dependent effect”, 25.93% and “Non-Toxic”, respectively. Besides, the inhibition at 12.5 µg/mL with HUVEC [5] was 10.5%.
Take `O=C1NCc2c(O)cc(O)cc21`: the “fold change (FC)” value in the data set on HUVEC [6] stood at 0.72; in the data set with HUVEC [7] it was 0.9; in data set [8], 0.71; in the data set filed under Homo sapiens [9], 0.9; in the data set listed under Homo sapiens [10], 1.05; in data set [11], 0.87. For the same compound, the Activity result with HUVEC [1] is on record as “Dose-dependent effect”; with HUVEC [3], 23.13%; in the data set on HUVEC [4], “Non-Toxic”. Besides, the inhibition at 12.5 µg/mL in the data set with HUVEC [5] was found to be 32.6%.
As for `CNc1ccccc1C(=O)O`, the Activity entry was “Dose-dependent effect” in the data set on HUVEC [1], 24.55% in the data set on HUVEC [3] and “Non-Toxic” in the data set with HUVEC [4]. In the data set with HUVEC [2], the inhibition entry is “inactive”.
As to `CN(C)c1ccccc1C(=O)O`, the values for the Activity result with HUVEC [1], in the data set with HUVEC [3] and in the data set on HUVEC [4] were “Dose-dependent effect”, 25.82% and “Non-Toxic”, respectively. Also, the inhibition entry with HUVEC [2] was “inactive”.
Consider `NC(=O)c1cccnc1` [NIACINAMIDE], for which the Activity result is “Dose-dependent effect” in the data set with HUVEC [1], 6.07% in the data set with HUVEC [3] and “Non-Toxic” in the data set on HUVEC [4]. In the data set on HUVEC [5], the inhibition at 12.5 µg/mL worked out at 11.3%.
As to `O=C1OCc2cc(O)cc(O)c21`, the inhibition result in the data set with HUVEC [2] was “inactive”.

The term inhibition denotes the drop in the measured response relative to a control, in per cent.
